{"source": "paper PMC5218480", "about": "(PLoS ONE, 2017)", "test_system": "MV-4-11 cells", "assay": "Gene expression microarray analysis (Affymetrix PrimeView) and GSEA", "assay_type": "cell-based, human", "set-up": "RFU PODN (11730768_x_at) / Fold change /veh PODN (11730768_x_at) / RFU LINC00158 (11744669_a_at) / Fold change /veh LINC00158 (11744669_a_at) / RFU DUSP10 (11751237_a_at) / Fold change /veh DUSP10 (11751237_a_at) / RFU ID3 (11757404_x_at) / Fold change /veh ID3 (11757404_x_at) / RFU PLEKHG5 (11737974_s_at) / Fold change /veh PLEKHG5 (11737974_s_at) / RFU LRRC4B (11730491_at) / Fold change /veh LRRC4B (11730491_at) / RFU GIMAP4 (11747438_a_at) / Fold change /veh GIMAP4 (11747438_a_at) / RFU KRT8 (11758183_x_at) / Fold change /veh KRT8 (11758183_x_at) / RFU CNN1 (11734310_a_at) / Fold change /veh CNN1 (11734310_a_at) / RFU VPS37D (11726825_at) / Fold change /veh VPS37D (11726825_at) / RFU C10orf10 (11716522_x_at) / Fold change /veh C10orf10 (11716522_x_at) / RFU KIR2DL2 /// KIR2DL4 /// KIR2DL5A /// KIR2DL5B /// KIR2DS1 /// KIR2DS2 /// KIR2DS3 /// KIR2DS4 /// KIR3DL3 /// KIR3DL3 /// KIR3DS1 (11738374_at) / Fold change /veh KIR2DL2 /// KIR2DL4 /// KIR2DL5A /// KIR2DL5B /// KIR2DS1 /// KIR2DS2 /// KIR2DS3 /// KIR2DS4 /// KIR3DL3 /// KIR3DL3 /// KIR3DS1 (11738374_at) / RFU C1QL1 (11718748_at) / Fold change /veh C1QL1 (11718748_at) / RFU TMPRSS4 (11747572_a_at) / Fold change /veh TMPRSS4 (11747572_a_at) / RFU HAMP (11756126_x_at) / Fold change /veh HAMP (11756126_x_at) / RFU RNFT2 (11725882_a_at) / Fold change /veh RNFT2 (11725882_a_at) / RFU NR4A2 (11747474_a_at) / Fold change /veh NR4A2 (11747474_a_at) / RFU ABCC12 (11746883_a_at) / Fold change /veh ABCC12 (11746883_a_at) / RFU TMEM136 (11760407_x_at) / Fold change /veh TMEM136 (11760407_x_at) / RFU CLDN22 /// WWC2 (11732394_at) / Fold change /veh CLDN22 /// WWC2 (11732394_at) / RFU HLA-DPB1 (11760878_x_at) / Fold change /veh HLA-DPB1 (11760878_x_at) / RFU SPINT1 (11716480_a_at) / Fold change /veh SPINT1 (11716480_a_at) / RFU GAP43 (11754022_s_at) / Fold change /veh GAP43 (11754022_s_at) / RFU A4GNT (11735810_at) / Fold change /veh A4GNT (11735810_at) / RFU PRB3 (11715151_x_at) / Fold change /veh PRB3 (11715151_x_at) / RFU TUBB4B (11761932_at) / Fold change /veh TUBB4B (11761932_at) / RFU CAPN14 (11732068_a_at) / Fold change /veh CAPN14 (11732068_a_at) / RFU TMCC2 (11721928_a_at) / Fold change /veh TMCC2 (11721928_a_at) / RFU IRGQ (11745062_a_at) / Fold change /veh IRGQ (11745062_a_at) / RFU FAM174B (11720279_a_at) / Fold change /veh FAM174B (11720279_a_at) / RFU TMPRSS4 (11748680_a_at) / Fold change /veh TMPRSS4 (11748680_a_at) / RFU FAM212B (11763350_a_at) / Fold change /veh FAM212B (11763350_a_at) / RFU PLEKHG5 (11743358_a_at) / Fold change /veh PLEKHG5 (11743358_a_at) / RFU ZSCAN30 (11745921_a_at) / Fold change /veh ZSCAN30 (11745921_a_at) / RFU CMKLR1 (11741424_a_at) / Fold change /veh CMKLR1 (11741424_a_at) / RFU LOC101060620 /// MAPK8IP1 (11723275_at) / Fold change /veh LOC101060620 /// MAPK8IP1 (11723275_at) / RFU SPTSSB (11747773_x_at) / Fold change /veh SPTSSB (11747773_x_at) / RFU PRSS12 (11739890_at) / Fold change /veh PRSS12 (11739890_at) / RFU BIN1 (11741810_x_at) / Fold change /veh BIN1 (11741810_x_at) / RFU WNT11 (11732464_a_at) / Fold change /veh WNT11 (11732464_a_at) / RFU C10orf10 (11716521_a_at) / Fold change /veh C10orf10 (11716521_a_at) / RFU C5orf56 (11738089_at) / Fold change /veh C5orf56 (11738089_at) / RFU CYB561 (11721691_x_at) / Fold change /veh CYB561 (11721691_x_at) / RFU ANKRD19P (11752326_a_at) / Fold change /veh ANKRD19P (11752326_a_at) / RFU OR2T12 /// OR2T33 /// OR2T8 (11738714_s_at) / Fold change /veh OR2T12 /// OR2T33 /// OR2T8 (11738714_s_at) / RFU VCAN (11748164_a_at) / Fold change /veh VCAN (11748164_a_at) / RFU JSRP1 (11732532_at) / Fold change /veh JSRP1 (11732532_at) / RFU KRTAP10-11 (11738290_x_at) / Fold change /veh KRTAP10-11 (11738290_x_at) / RFU MYO3A (11730013_a_at) / Fold change /veh MYO3A (11730013_a_at) / RFU EBF3 (11725865_a_at) / Fold change /veh EBF3 (11725865_a_at) / RFU CAMK2N1 (11719241_x_at) / Fold change /veh CAMK2N1 (11719241_x_at) / RFU C5orf56 (11738088_a_at) / Fold change /veh C5orf56 (11738088_a_at) / RFU OLFML3 (11715873_a_at) / Fold change /veh OLFML3 (11715873_a_at) / RFU LOC100653217 /// NTM (11731650_a_at) / Fold change /veh LOC100653217 /// NTM (11731650_a_at) / RFU MAPK11 (11762145_a_at) / Fold change /veh MAPK11 (11762145_a_at) / RFU FIZ1 (11724087_x_at) / Fold change /veh FIZ1 (11724087_x_at) / RFU OASL (11726364_x_at) / Fold change /veh OASL (11726364_x_at) / RFU SOX15 (11748057_x_at) / Fold change /veh SOX15 (11748057_x_at) / RFU CD79A (11719716_a_at) / Fold change /veh CD79A (11719716_a_at) / RFU HIST1H1D (11736915_at) / Fold change /veh HIST1H1D (11736915_at) / RFU CASKIN2 (11723855_a_at) / Fold change /veh CASKIN2 (11723855_a_at) / RFU LOC730098 (11760151_x_at) / Fold change /veh LOC730098 (11760151_x_at) / RFU OR4N2 (11742367_at) / Fold change /veh OR4N2 (11742367_at) / RFU PRRT2 (11749266_a_at) / Fold change /veh PRRT2 (11749266_a_at) / RFU SNX32 (11753110_a_at) / Fold change /veh SNX32 (11753110_a_at) / RFU CDHR5 (11726645_a_at) / Fold change /veh CDHR5 (11726645_a_at) / RFU RCAN1 (11760418_a_at) / Fold change /veh RCAN1 (11760418_a_at) / RFU FAM167A (11723789_a_at) / Fold change /veh FAM167A (11723789_a_at) / RFU FAM26E (11764081_at) / Fold change /veh FAM26E (11764081_at) / RFU ISYNA1 (11749810_s_at) / Fold change /veh ISYNA1 (11749810_s_at) / RFU ACY1 (11761880_at) / Fold change /veh ACY1 (11761880_at) / RFU 11764098_at / Fold change /veh 11764098_at / RFU SAMD14 (11745864_x_at) / Fold change /veh SAMD14 (11745864_x_at) / RFU NPB (11741838_a_at) / Fold change /veh NPB (11741838_a_at) / RFU TMPRSS6 (11731388_a_at) / Fold change /veh TMPRSS6 (11731388_a_at) / RFU KRTAP10-2 (11738614_at) / Fold change /veh KRTAP10-2 (11738614_at) / RFU ARHGAP8 /// PRR5-ARHGAP8 (11727945_x_at) / Fold change /veh ARHGAP8 /// PRR5-ARHGAP8 (11727945_x_at) / RFU KRTAP5-7 /// NADSYN1 (11734609_at) / Fold change /veh KRTAP5-7 /// NADSYN1 (11734609_at) / RFU RASL12 (11751679_a_at) / Fold change /veh RASL12 (11751679_a_at) / RFU CDKN2B (11736163_a_at) / Fold change /veh CDKN2B (11736163_a_at) / RFU PRF1 (11729649_at) / Fold change /veh PRF1 (11729649_at) / RFU, ZNF638 /// ZNF638-IT1 / Fold change vs veh, ZNF638 /// ZNF638-IT1 / RFU, PANK3 / Fold change vs veh, PANK3 / RFU, SH3YL1 / Fold change vs veh, SH3YL1 / RFU, ZEB2 / Fold change vs veh, ZEB2 / RFU, NRIP1 / Fold change vs veh, NRIP1 / RFU, PTTG1IP / Fold change vs veh, PTTG1IP / RFU, CAPN2 / Fold change vs veh, CAPN2 / RFU, MED14 / Fold change vs veh, MED14 / RFU, SNORA58 / Fold change vs veh, SNORA58 / RFU, C1orf63 / Fold change vs veh, C1orf63 / RFU, LRRFIP1 / Fold change vs veh, LRRFIP1 / RFU, NDUFAF7 / Fold change vs veh, NDUFAF7 / RFU, SLC12A2 / Fold change vs veh, SLC12A2 / RFU, IBTK / Fold change vs veh, IBTK / RFU, ESF1 / Fold change vs veh, ESF1 / Fold change vs veh, TMEM50B / RFU, TAOK1 / Fold change vs veh, TAOK1 / RFU, ACBD3 / Fold change vs veh, ACBD3 / RFU, TMA16 / Fold change vs veh, TMA16 / RFU, RWDD3 / Fold change vs veh, RWDD3 / RFU, BCAT1 / Fold change vs veh, BCAT1 / RFU, EDEM3 / Fold change vs veh, EDEM3 / RFU, TMEM33 / Fold change vs veh, TMEM33 / RFU, WDR75 / Fold change vs veh, WDR75 / RFU, AHCTF1 / Fold change vs veh, AHCTF1 / RFU, TFRC / Fold change vs veh, TFRC / RFU, ZDHHC17 / Fold change vs veh, ZDHHC17 / RFU, NOM1 / Fold change vs veh, NOM1 / RFU, ARL8B / Fold change vs veh, ARL8B / RFU, ZBTB11 / Fold change vs veh, ZBTB11 / RFU, TAMM41 / Fold change vs veh, TAMM41 / RFU, KIAA1704 /// LOC100996395 / Fold change vs veh, KIAA1704 /// LOC100996395 / RFU, ING1 / Fold change vs veh, ING1 / RFU, TRMT61B / Fold change vs veh, TRMT61B / RFU, FUBP3 / Fold change vs veh, FUBP3 / RFU, TP53 / Fold change vs veh, TP53 / RFU, TNKS2 / Fold change vs veh, TNKS2 / RFU, ZFP14 / Fold change vs veh, ZFP14 / RFU, ACTR2 / Fold change vs veh, ACTR2 / RFU, PPP3R1 / Fold change vs veh, PPP3R1 / RFU, PIK3R1 / Fold change vs veh, PIK3R1 / RFU, HNRNPA1 / Fold change vs veh, HNRNPA1 / RFU, RNF170 / Fold change vs veh, RNF170 / RFU, ZNF28 / Fold change vs veh, ZNF28 / RFU, RNGTT / Fold change vs veh, RNGTT / RFU, OGT / Fold change vs veh, OGT / RFU, BRD1 / Fold change vs veh, BRD1 / RFU, MARS / Fold change vs veh, MARS / RFU, ZNF655 / Fold change vs veh, ZNF655 / RFU, FAHD1 / Fold change vs veh, FAHD1 / RFU, BDP1 / Fold change vs veh, BDP1 / RFU, LRRCC1 / Fold change vs veh, LRRCC1 / RFU, ARID1A / Fold change vs veh, ARID1A / RFU, ZNF146 / Fold change vs veh, ZNF146 / RFU, ZNF330 / Fold change vs veh, ZNF330 / RFU, GPN3 / Fold change vs veh, GPN3 / RFU, C9orf123 / Fold change vs veh, C9orf123 / RFU, N4BP2L2 / Fold change vs veh, N4BP2L2 / RFU, ARFIP1 / Fold change vs veh, ARFIP1 / RFU, FAM179B / Fold change vs veh, FAM179B / RFU, BCL10 / Fold change vs veh, BCL10 / RFU, UHRF1BP1L / Fold change vs veh, UHRF1BP1L / RFU, BET1 / Fold change vs veh, BET1 / RFU, CNOT2 / Fold change vs veh, CNOT2 / RFU, ZNF268 / Fold change vs veh, ZNF268 / Fold change vs veh, ZNF507 / RFU, DGCR2 / Fold change vs veh, DGCR2 / RFU, WDSUB1 / Fold change vs veh, WDSUB1 / Fold change vs veh, HSP90B1 /// MIR3652 / RFU, ADSS / Fold change vs veh, ADSS / RFU, GK / Fold change vs veh, GK / RFU, ZNF148 / Fold change vs veh, ZNF148 / RFU, TAF9 / Fold change vs veh, TAF9 / RFU, SLC1A5 / Fold change vs veh, SLC1A5 / RFU, SLMO2 / Fold change vs veh, SLMO2 / RFU, ABCC4 / Fold change vs veh, ABCC4 / RFU, LOC101060439 /// RAP1B / Fold change vs veh, LOC101060439 /// RAP1B / RFU, RFX7 / Fold change vs veh, RFX7 / RFU, GTPBP10 / Fold change vs veh, GTPBP10 / RFU, CNEP1R1 / Fold change vs veh, CNEP1R1 / RFU, BIVM-ERCC5 /// ERCC5 / Fold change vs veh, BIVM-ERCC5 /// ERCC5 / RFU, ILF3 / Fold change vs veh, ILF3 / RFU 11762660_at / Fold change /veh 11762660_at / RFU VCAN (11757783_s_at) / Fold change /veh VCAN (11757783_s_at) / RFU DDX43 (11728927_at) / Fold change /veh DDX43 (11728927_at) / RFU KRT8 (11758188_x_at) / Fold change /veh KRT8 (11758188_x_at) / RFU NKD1 (11759106_at) / Fold change /veh NKD1 (11759106_at) / RFU SRD5A1 (11742802_a_at) / Fold change /veh SRD5A1 (11742802_a_at) / RFU TPSAB1 /// TPSB2 (11721975_s_at) / Fold change /veh TPSAB1 /// TPSB2 (11721975_s_at) / RFU GSTM3 (11746129_a_at) / Fold change /veh GSTM3 (11746129_a_at) / RFU IL23R (11737362_x_at) / Fold change /veh IL23R (11737362_x_at) / RFU TMEM51 (11727254_a_at) / Fold change /veh TMEM51 (11727254_a_at) / RFU PIWIL2 (11732686_x_at) / Fold change /veh PIWIL2 (11732686_x_at) / RFU ORM1 (11744905_x_at) / Fold change /veh ORM1 (11744905_x_at) / RFU CCDC152 (11743942_at) / Fold change /veh CCDC152 (11743942_at) / RFU ECM1 (11717891_a_at) / Fold change /veh ECM1 (11717891_a_at) / RFU IL23R (11748794_a_at) / Fold change /veh IL23R (11748794_a_at) / RFU TNFAIP8L3 (11732012_x_at) / Fold change /veh TNFAIP8L3 (11732012_x_at) / RFU MBOAT4 (11741988_at) / Fold change /veh MBOAT4 (11741988_at) / RFU 11764193_at / Fold change /veh 11764193_at / RFU TMEM53 (11763286_at) / Fold change /veh TMEM53 (11763286_at) / RFU MAGEB2 (11727129_at) / Fold change /veh MAGEB2 (11727129_at) / RFU TMEM200A (11744735_a_at) / Fold change /veh TMEM200A (11744735_a_at) / RFU CCDC152 (11751479_a_at) / Fold change /veh CCDC152 (11751479_a_at) / RFU FAM211A (11726209_a_at) / Fold change /veh FAM211A (11726209_a_at) / RFU RGS16 (11746705_a_at) / Fold change /veh RGS16 (11746705_a_at) / RFU VCAN (11755009_s_at) / Fold change /veh VCAN (11755009_s_at) / RFU RHOB (11743442_s_at) / Fold change /veh RHOB (11743442_s_at) / RFU RGS16 (11720943_a_at) / Fold change /veh RGS16 (11720943_a_at) / RFU RGS16 (11720944_at) / Fold change /veh RGS16 (11720944_at) / RFU, VPS4B / Fold change vs veh, VPS4B / RFU, CREB1 / Fold change vs veh, CREB1 / RFU, DNAJC13 / Fold change vs veh, DNAJC13 / RFU, GNAQ / Fold change vs veh, GNAQ / RFU, CDK5R1 / Fold change vs veh, CDK5R1 / RFU, ZRANB3 / Fold change vs veh, ZRANB3 / RFU, CUL4A / Fold change vs veh, CUL4A / RFU, CCNY / Fold change vs veh, CCNY / RFU, UFL1 / Fold change vs veh, UFL1 / RFU, COG3 / Fold change vs veh, COG3 / RFU, DIAPH2 / Fold change vs veh, DIAPH2 / RFU, SKA2 / Fold change vs veh, SKA2 / RFU, AFF3 / Fold change vs veh, AFF3 / RFU, LMF1 / Fold change vs veh, LMF1 / RFU, IPO11 / Fold change vs veh, IPO11 / RFU, DFFB / Fold change vs veh, DFFB / RFU, FOXP1 / Fold change vs veh, FOXP1 / RFU, CARD8 / Fold change vs veh, CARD8 / RFU, STRN3 / Fold change vs veh, STRN3 / RFU, ADK / Fold change vs veh, ADK / RFU, RASSF2 / Fold change vs veh, RASSF2 / RFU, WIPF1 / Fold change vs veh, WIPF1 / RFU, LARP1B / Fold change vs veh, LARP1B / RFU, RASA1 / Fold change vs veh, RASA1 / RFU, RB1 / Fold change vs veh, RB1 / RFU, PPFIA1 / Fold change vs veh, PPFIA1 / RFU, MAT2A / Fold change vs veh, MAT2A / RFU, CCT5 / Fold change vs veh, CCT5 / RFU, WDR92 / Fold change vs veh, WDR92 / RFU, CUX1 / Fold change vs veh, CUX1 / RFU, TTC7A / Fold change vs veh, TTC7A / RFU, TMEM135 / Fold change vs veh, TMEM135 / RFU, DEPTOR / Fold change vs veh, DEPTOR / RFU, CPM / Fold change vs veh, CPM / RFU, DNAJB6 / Fold change vs veh, DNAJB6 / RFU, CACNA2D3 / Fold change vs veh, CACNA2D3 / RFU, DTX4 / Fold change vs veh, DTX4 / RFU, TFCP2 / Fold change vs veh, TFCP2 / RFU, GMCL1 /// GMCL1P1 / Fold change vs veh, GMCL1 /// GMCL1P1 / RFU, AEBP2 / Fold change vs veh, AEBP2 / RFU, SNHG1 /// SNORD22 /// SNORD25 /// SNORD26 /// SNORD27 /// SNORD28 /// SNORD29 /// SNORD31 / Fold change vs veh, SNHG1 /// SNORD22 /// SNORD25 /// SNORD26 /// SNORD27 /// SNORD28 /// SNORD29 /// SNORD31 / Fold change (Aza/veh), C12orf56 (ProbeSet 11735607_a_at) / Fold change (ACY-1035/veh), C12orf56 (ProbeSet 11735607_a_at) / Fold change (Aza/veh), FGFR1OP (ProbeSet 11751329_s_at) / Fold change (ACY-1035/veh), FGFR1OP (ProbeSet 11751329_s_at) / Fold change (Aza/veh), VPS36 (ProbeSet 11739960_a_at) / Fold change (ACY-1035/veh), VPS36 (ProbeSet 11739960_a_at) / RFU SYPL1 (11715823_x_at) / Fold change /veh SYPL1 (11715823_x_at) / RFU IGFBP7 (11715501_s_at) / Fold change /veh IGFBP7 (11715501_s_at) / RFU REEP3 (11722064_at) / Fold change /veh REEP3 (11722064_at) / RFU IGLL1 (11728026_x_at) / Fold change /veh IGLL1 (11728026_x_at): dose or concentration left out as unconfirmed", "details": "ProbeSet 11727827_x_at; LIST B", "data": [{"smiles": "Nc1ccc(-c2cccs2)cc1NC(=O)c1ccc2c(c1)cc(C1CC1)n2CCN1CCOCC1", "note": "[ACY-1035]", "values": [{"measurement": "RFU, NDUFAF7", "value": 59.45, "unit": "RFU"}]}]}
